Source: ChEMBL document CHEMBL1201862, “PubChem BioAssay data set” (2004)
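Method: 48-hour compound exposure of cells in 96-well plates, five concentrations, linear interpolation of endpoints. GI50 is the concentration that inhibits growth by half.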 Activity calls are given as the source filed them. Cut-off read from the data, not from the text of the source: active = GI50 up to about 1.1 µM and inactive = higher.

How the values were obtained:
Experiment in all cases: growth of human tumour cells (NCI), 48 h
[1] = system: SR
[2] = system: SK-MEL-2
[3] = system: M14
[4] = system: U-251
[5] = system: HOP-62
[6] = system: IGROV-1
[7] = system: NCI-H460
[8] = system: LOX IMVI
[9] = system: OVCAR-4
[10] = system: A549
[11] = system: HOP-92
[12] = system: COLO 205
[13] = system: CAKI-1
[14] = system: SN12C
[15] = system: SF-295
[16] = system: RPMI-8226
[17] = system: NCI-H522
[18] = system: UO-31
[19] = system: MOLT-4
[20] = system: NCI-H226

CCCSc1ccc2[nH]c(N3C(=O)/C(=C/c4cc(OC)c(OC)c(OC)c4)N=C3c3ccccc3)cc2c1
GI50 [1]: 1.66 µM (inactive)
GI50 [2]: 18.4 µM (inactive)
GI50 [3]: 10.4 µM (inactive)
GI50 [4]: 17.8 µM (inactive)
GI50 [5]: 1.39 µM (inactive)
GI50 [6]: 9.38 µM (inactive)
GI50 [7]: 12.5 µM (inactive)
GI50 [8]: 12.2 µM (inactive)
GI50 [9]: 14.5 µM (inactive)
GI50 [10]: 553 nM (active)
GI50 [11]: 13.9 µM (inactive)
GI50 [12]: 8.43 µM (inactive)
GI50 [13]: 11.9 µM (inactive)
GI50 [14]: 16.4 µM (inactive)
GI50 [15]: 1.25 µM (inactive)
GI50 [16]: 9.18 µM (inactive)
GI50 [17]: 8.97 µM (inactive)
GI50 [18]: 15.1 µM (inactive)
GI50 [19]: 10.9 µM (inactive)
GI50 [20]: > 37.5 µM (inactive)

CCCn1c(CN(Cc2nc3ccccc3n2CCC)Cc2nc3ccccc3n2CCC)nc2ccccc21
GI50 [1]: 2.58 µM (inactive)
GI50 [2]: 5.69 µM (inactive)
GI50 [3]: 2.46 µM (inactive)
GI50 [4]: 3.97 µM (inactive)
GI50 [5]: 10.8 µM (inactive)
GI50 [6]: 1.94 µM (inactive)
GI50 [7]: 3.27 µM (inactive)
GI50 [8]: 3.7 µM (inactive)
GI50 [9]: 3.73 µM (inactive)
GI50 [10]: 2590 nM (inactive)
GI50 [11]: 3.03 µM (inactive)
GI50 [12]: 2.81 µM (inactive)
GI50 [13]: 2.81 µM (inactive)
GI50 [14]: 2.01 µM (inactive)
GI50 [15]: 8.55 µM (inactive)
GI50 [16]: 2.04 µM (inactive)
GI50 [17]: 4.63 µM (inactive)
GI50 [18]: 2.21 µM (inactive)
GI50 [19]: 3.21 µM (inactive)
GI50 [20]: 6.47 µM (inactive)

O=S1(=O)CS(=O)(=O)OCCCO1
GI50 [1]: 41.2 µM (inactive)
GI50 [2]: > 100 µM (inactive)
GI50 [3]: > 100 µM (inactive)
GI50 [4]: > 100 µM (inactive)
GI50 [5]: > 100 µM (inactive)
GI50 [6]: > 100 µM (inactive)
GI50 [7]: 27.3 µM (inactive)
GI50 [8]: > 100 µM (inactive)
GI50 [9]: > 100 µM (inactive)
GI50 [10]: > 100000 nM (inactive)
GI50 [11]: > 100 µM (inactive)
GI50 [12]: > 100 µM (inactive)
GI50 [13]: 24.3 µM (inactive)
GI50 [14]: > 100 µM (inactive)
GI50 [15]: 54.1 µM (inactive)
GI50 [16]: > 100 µM (inactive)
GI50 [17]: > 100 µM (inactive)
GI50 [18]: > 100 µM (inactive)
GI50 [19]: 51.3 µM (inactive)
GI50 [20]: > 100 µM (inactive)

C#C[C@]1(O)[C@@H](CO)O[C@@H](n2ccc(=O)[nH]c2=O)[C@@H]1O
GI50 [1]: 62.4 µM (inactive)
GI50 [2]: 0.15 µM (active)
GI50 [3]: 0.237 µM (active)
GI50 [4]: 0.121 µM (active)
GI50 [5]: 0.147 µM (active)
GI50 [6]: 0.0745 µM (active)
GI50 [7]: < 0.01 µM (active)
GI50 [8]: 0.0246 µM (active)
GI50 [9]: 0.43 µM (active)
GI50 [10]: 30.8 nM (active)
GI50 [11]: 0.132 µM (active)
GI50 [12]: < 0.01 µM (active)
GI50 [13]: < 0.0161 µM (active)
GI50 [14]: < 0.0184 µM (active)
GI50 [15]: 0.191 µM (active)
GI50 [16]: 0.0101 µM (active)
GI50 [17]: 0.0214 µM (active)
GI50 [18]: 0.0278 µM (active)
GI50 [19]: < 0.0177 µM (active)
GI50 [20]: 0.0746 µM (active)
